55 molecules from the supplement of paper PMC12317010 can be followed below.

This data set is described as follows: collision cross section in nitrogen (drift tube, single-field); higher = larger gas-phase ion size.
Where [1] appears, read: ion type: [M+H], ion source: APCI, ion mode: Positive.
Setting [2] is: ion type: [M+H], ion source: ESI, ion mode: Positive.
The mark [3] stands for this setting: ion type: [M+Na], ion source: ESI, ion mode: Positive.
Where [4] appears, read: ion type: [M-H], ion source: ESI, ion mode: Negative.
[5] abbreviates: ion source: ESI, ion mode: Positive, ion type: [M]+ (permanent cation).

The structures appear in SMILES notation. Structures can show the parent of a compound that is named as a salt.
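Also: chemical standards at 10 µM analysed by drift tube IMS-QTOF MS in about 3.95 torr nitrogen, mean of duplicate injections differing ≤1%, mass error below 10 ppm.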

For the molecule `Cc1cccc(OP(=O)(Oc2cccc(C)c2)Oc2cccc(C)c2)c1` [Phosphoric acid, tris(3-methylphenyl) ester], the “collision cross section in nitrogen” value is given as 188.7 Å² under setting [1], 188.6 Å² under setting [2] and 198.9 Å² under setting [3].
Consider `CCOP(=S)(OCC)ON=C(C#N)c1ccccc1` [Phoxim], for which the “collision cross section in nitrogen” value under setting [4] worked out at 165.7 Å².
In the case of `CNC(=O)Oc1ccc2c(c1)[C@]1(C)CCN(C)[C@@H]1N2C` [Physostigmine], the “collision cross section in nitrogen” value by setting is: under setting [1], 169.6 Å²; under setting [2], 169.8 Å²; under setting [3], 169.6 Å².
As to `CO/C=C(/C(=O)OC)c1ccccc1COc1cccc(C(F)(F)F)n1` [Picoxystrobin], under setting [3], the “collision cross section in nitrogen” value turned out to be 179.3 Å².
On to `O=c1[nH]c2ccccc2n1C1CCN(CCCC(c2ccc(F)cc2)c2ccc(F)cc2)CC1` [Pimozide], for which the “collision cross section in nitrogen” value under setting [1] stood at 211.9 Å², the “collision cross section in nitrogen” value under setting [2] was found to be 211.8 Å², the “collision cross section in nitrogen” value under setting [3] is recorded as 217.6 Å² and the “collision cross section in nitrogen” value under setting [4] amounted to 215.8 Å².
`CCOc1ccc2c(ccc(C=Cc3cccc([N+](=O)[O-])c3)[n+]2C)c1` [Pinakryptol Yellow]: the “collision cross section in nitrogen” value under setting [5] is recorded as 189.2 Å².
For the molecule `CCc1cc(C)cc(CC)c1-c1c(OC(=O)C(C)(C)C)n2n(c1=O)CCOCC2` [Pinoxaden], the “collision cross section in nitrogen” value came to 196.5 Å² under setting [1], 196.6 Å² under setting [2] and 202.8 Å² under setting [3].
For `CCc1ccc(CCOc2ccc(CC3SC(=O)NC3=O)cc2)nc1` (stereo unspecified) [Pioglitazone hydrochloride], the “collision cross section in nitrogen” value by setting is: under setting [1], 178.8 Å²; under setting [2], 178.9 Å²; under setting [3], 186.7 Å²; under setting [4], 176.4 Å².
Regarding `O=C(/C=C/C=C/c1ccc2c(c1)OCO2)N1CCCCC1` [Piperine], the “collision cross section in nitrogen” value runs as follows: under setting [1], 176 Å²; under setting [2], 175.7 Å²; under setting [3], 177.8 Å².
Regarding `CCCCOCCOCCOCc1cc2c(cc1CCC)OCO2` [Piperonyl butoxide], under setting [3], the “collision cross section in nitrogen” value amounted to 179.9 Å².
`CS(=O)(=O)c1ccc([C@@H](C[C@H]2CCC(=O)C2)C(=O)Nc2cnccn2)cc1Cl` [Piragliatin]: the “collision cross section in nitrogen” value under setting [4] is 204.3 Å².
For the molecule `Cc1nc(N(C)C)nc(OC(=O)N(C)C)c1C` [Pirimicarb], the “collision cross section in nitrogen” value is 152 Å² under setting [1], 156.4 Å² under setting [2] and 164.2 Å² under setting [3].
On the same counts, the results for `CCOP(=S)(OCC)Oc1cc(C)nc(N(CC)CC)n1` [Pirimiphos-ethyl] are 176.3 Å², 178.3 Å² and 181.5 Å².
`CCN(CC)c1nc(C)cc(OP(=S)(OC)OC)n1` [Pirimiphos-methyl]: the “collision cross section in nitrogen” value is on record as 165.5 Å² under setting [1] and 167.9 Å² under setting [2].
Take `O=C(O)C[C@H](O)C[C@H](O)/C=C/c1c(C2CC2)nc2ccccc2c1-c1ccc(F)cc1` [Pitavastatin calcium]: the “collision cross section in nitrogen” value is 202.3 Å² under setting [1], 203.2 Å² under setting [2], 196.7 Å² under setting [3] and 207.8 Å² under setting [4].
On to `CCCCCCCCC=CCCCCCCCC(=O)OCCO` [Poly(oxyethylene) monoleate], for which the “collision cross section in nitrogen” value under setting [4] amounted to 186.1 Å².
Turning to `O=S(=O)(O)c1cc(O)ccc1O` [Potassium 2,5-dihydroxybenzenesulfonate], the “collision cross section in nitrogen” value under setting [4] was 131.2 Å².
`CCCCC(CC)C(=O)O` (stereo unspecified) [Potassium 2-ethylhexanoate]: the “collision cross section in nitrogen” value under setting [4] was 137.8 Å².
Same read-out and setting: under `CC(=O)CC(=O)Nc1ccc(S(=O)(=O)O)cc1` [Potassium 4-acetoacetylaminobenzenesulphonate] stands 159.1 Å².
Take `O=S(=O)(O)c1ccc2cc(O)ccc2c1` [Potassium 6-hydroxynaphthalene-2-sulfonate]: the “collision cross section in nitrogen” value under setting [4] came out at 148.2 Å².
Take `O=C(O)CNc1ccccc1` [Potassium anilinoacetate]: under setting [4], the “collision cross section in nitrogen” value came out at 134.6 Å².
On the same count and under the same terms, to `[O-][Cl+2]([O-])O` [Potassium chlorate] belongs 104 Å².
On the same count and under the same terms, to `I` [Potassium iodide] belongs 92.6 Å².
For `O=[N+]([O-])O` [Potassium nitrate], the “collision cross section in nitrogen” value under setting [4] amounted to 104.9 Å².
On the same count and under the same terms, to `[O-][Cl+3]([O-])([O-])O` [Potassium perchlorate] belongs 105.2 Å².
On to `O=S(=O)(O)C(F)(F)C(F)(F)C(F)(F)C(F)(F)F` [Potassium perfluorobutanesulfonate], for which, under setting [4], the “collision cross section in nitrogen” value is 134.2 Å².
Consider `O=S(=O)(O)C(F)(F)C(F)(F)C(F)(F)C(F)(F)C(F)(F)C(F)(F)F` [Potassium perfluorohexanesulfonate], for which the “collision cross section in nitrogen” value under setting [4] was determined as 150.9 Å².
With `O=S(=O)(O)C(F)(F)C(F)(F)C(F)(F)C(F)(F)C(F)(F)C(F)(F)C(F)(F)C(F)(F)F` [Potassium perfluorooctanesulfonate], the “collision cross section in nitrogen” value under setting [4] was 169 Å².
As to `C#CCC1=C(C)C(OC(=O)C2C(C=C(C)C)C2(C)C)CC1=O` (stereo unspecified) [Prallethrin], under setting [3], the “collision cross section in nitrogen” value was 182.8 Å².
Turning to `CCCN[C@H]1CCc2nc(N)sc2C1` [Pramipexole dihydrochloride monohydrate], the “collision cross section in nitrogen” value by setting is: under setting [1], 152.8 Å²; under setting [2], 152.6 Å².
Turning to `CC[C@H](C)C(=O)O[C@H]1C[C@H](O)C=C2C=C[C@H](C)[C@H](CC[C@@H](O)C[C@@H](O)CC(=O)O)[C@H]21` [Pravastatin sodium], the “collision cross section in nitrogen” value is reported as 206.7 Å² under setting [3] and 201.5 Å² under setting [4].
For the molecule `O=C(C1CCCCC1)N1CC(=O)N2CCc3ccccc3C2C1` (stereo unspecified) [Praziquantel], the “collision cross section in nitrogen” value turned out to be 178.5 Å² under setting [1], 178.3 Å² under setting [2] and 185.4 Å² under setting [3].
With `C[C@]12C=CC(=O)C=C1CC[C@@H]1[C@@H]2[C@@H](O)C[C@@]2(C)[C@H]1CC[C@]2(O)C(=O)CO` [Prednisolone], the “collision cross section in nitrogen” value is, setting by setting: under setting [1], 186.4 Å²; under setting [3], 210.8 Å².
On the same counts, the results for `C[C@]12C=CC(=O)C=C1CC[C@@H]1[C@@H]2C(=O)C[C@@]2(C)[C@H]1CC[C@]2(O)C(=O)CO` [Prednisone] are 184.1 Å² and 192.2 Å².
`CC(=O)[C@H]1[C@H](C#N)C[C@H]2[C@@H]3CC=C4C[C@@H](O)CC[C@]4(C)[C@H]3CC[C@@]21C` [Pregnenolone carbonitrile]: the “collision cross section in nitrogen” value under setting [4] turned out to be 189.5 Å².
For the molecule `COC(=O)c1ccccc1S(=O)(=O)NC(=O)Nc1nc(OC(F)F)cc(OC(F)F)n1` [Primisulfuron-methyl], the “collision cross section in nitrogen” value under setting [3] stood at 199.7 Å².
As to `CCCN(CCC)S(=O)(=O)c1ccc(C(=O)O)cc1` [Probenecid], the “collision cross section in nitrogen” value under setting [4] was 172.9 Å².
`CCN(CC)CCOC(=O)c1ccc(N)cc1` [Procaine hydrochloride]: the “collision cross section in nitrogen” value under setting [1] turned out to be 155.9 Å² and the “collision cross section in nitrogen” value under setting [2] amounted to 157.1 Å².
On the same counts, the results for `CC(C)(C#N)Nc1nc(Cl)nc(NC2CC2)n1` [Procyazine] are 159.4 Å² and 159 Å².
For `CC12CC1(C)C(=O)N(c1cc(Cl)cc(Cl)c1)C2=O` (stereo unspecified) [Procymidone], under setting [4], the “collision cross section in nitrogen” value worked out at 157.1 Å².
Consider `CCCN(CCC)c1c([N+](=O)[O-])cc(C(F)(F)F)c(N)c1[N+](=O)[O-]` [Prodiamine], for which the “collision cross section in nitrogen” value under setting [4] stood at 171.1 Å².
As to `CCCSP(=O)(OCC)Oc1ccc(Br)cc1Cl` (stereo unspecified) [Profenofos], the “collision cross section in nitrogen” value under setting [2] is on record as 169.5 Å² and the “collision cross section in nitrogen” value under setting [3] is given as 184.3 Å².
With `Nc1ccc2cc3ccc(N)cc3nc2c1` [Proflavin hydrochloride], the “collision cross section in nitrogen” value under setting [1] stood at 143.4 Å² and the “collision cross section in nitrogen” value under setting [2] came to 143.9 Å².
As to `CCCN(CC1CC1)c1c([N+](=O)[O-])cc(C(F)(F)F)cc1[N+](=O)[O-]` [Profluralin], the “collision cross section in nitrogen” value under setting [4] was found to be 172.2 Å².
For the molecule `CNC(=O)Oc1cc(C)cc(C(C)C)c1` [Promecarb], under setting [3], the “collision cross section in nitrogen” value stood at 157.5 Å².
`CC(CN1c2ccccc2Sc2ccccc21)N(C)C` (stereo unspecified) [Promethazine hydrochloride]: the “collision cross section in nitrogen” value is, setting by setting: under setting [1], 163.3 Å²; under setting [2], 163.7 Å²; under setting [3], 172.5 Å².
In the same order, the values of `COc1nc(NC(C)C)nc(NC(C)C)n1` [Prometon] are 156.1 Å², 156.5 Å² and 173.7 Å².
Regarding `CSc1nc(NC(C)C)nc(NC(C)C)n1` [Prometryn], the “collision cross section in nitrogen” value under setting [1] is given as 160.9 Å² and the “collision cross section in nitrogen” value under setting [2] is 161 Å².
With `CC(C)N(C(=O)CCl)c1ccccc1` [Propachlor], the “collision cross section in nitrogen” value reads like this: under setting [1], 143.4 Å²; under setting [2], 143.2 Å²; under setting [3], 161.5 Å².
`CCCOC(=O)NCCCN(C)C` [Propamocarb hydrochloride]: the “collision cross section in nitrogen” value by setting is: under setting [1], 142.7 Å²; under setting [2], 143.4 Å².
Take `CCCOC(=O)NCCCN(C)C` [Propamocarb]: the “collision cross section in nitrogen” value is, setting by setting: under setting [1], 142.9 Å²; under setting [2], 143.3 Å².
On to `CCCCC(CC)C(=O)OC(C)C` (stereo unspecified) [Propan-2-yl 2-ethylhexanoate], for which the “collision cross section in nitrogen” value under setting [4] is 151.3 Å².
The same measure, in the same setting: to `N#CCC#N` [Propanedinitrile] belongs 103.8 Å².
For `CC(C)[N+](C)(CCOC(=O)C1c2ccccc2Oc2ccccc21)C(C)C` [Propantheline bromide], the “collision cross section in nitrogen” value under setting [5] amounted to 184.1 Å².
Turning to `C#CCOS(=O)OC1CCCCC1Oc1ccc(C(C)(C)C)cc1` (stereo unspecified) [Propargite], under setting [3], the “collision cross section in nitrogen” value is recorded as 186.9 Å².
